These results are taken from patent publication US20260151375A1, “CDK2 INHIBITORS AND METHODS OF USING THE SAME” (Cedilla Therapeutics, Inc., priority 2022, published 2026).

One assay has as its system Kuramochi cells. Description: IncuCyte Kuramochi Assay (cell proliferation). In kind it is cell-based. Conditions: 72 h, Kuramochi cells labeled with mApple-H2B, cell count, read-out: IncuCyte - Kuramochi RB-WT: IC50. Summed up: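 GI50 came from dose-response fits of cell-count fold change between 0 and 72 h, normalized to DMSO controls. Counts were fluorescent nuclei from live-cell images over a 10-point, ½ log series starting at 20 μM.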

In assay [1] the target is T1, CDK2/Cyclin E1 (Homo sapiens, UniProt P24941).
T1 construct: purchased 14-475
Put plainly: ADPGLO (CDK2/E1-37 C), ADP-Glo Luminescent Kinase Assay. In kind it is biochemical. Conditions: 0.18 nM CDK2/Cyclin E1, 100 μM ATP, Histone H1, 37° C. On the procedure: Inhibition of CDK2/Cyclin E1 activity by the presence of small molecules was evaluated using ADP-Glo Luminescent Kinase Assay (Promega). Activated CDK2/Cyclin E1 was incubated with its substrate Histone H1 (SignalChem H10-54N) in the kinase reaction buffer (100 μM ATP, 50 mM HEPES pH 7.5, 10 mM MgCl2, 1 mM EDTA, 2 mM DTT, 0.01% Brij35, 0.5 mg/mL BSA). Luminescence was recorded with an Envision plate reader (PerkinElmer).
Dose titrations of inhibitors in 100% DMSO were combined with 0.36 nM CDK2/Cyclin E1 in reaction buffer. The mixtures were incubated for 60 minutes at 37° C. before the addition of ATP and Histone H1 substrate to initiate the kinase reaction. The final conditions were 0.18 nM CDK2/Cyclin E1, 100 μM ATP, and 1.5 μM Histone H1. The reactions were incubated at 37° C. for 90 minutes before being stopped with the addition of ADP-Glo reagent. This mixture was incubated at room temperature for 60 minutes before Kinase Detection Solution is added to generate luminescence. The stopped reactions were analyzed on an Envision plate reader. The conversion ratios were normalized to yield % activity, plotted against compound concentration, and fit to a four-parameter equation to determine the IC50 for each compound.
(ADP-Glo turns the ADP formed in a reaction into a luminescent signal.)

Assay [2] concerns the target T1, CDK2/Cyclin E1. Description: Caliper Assay (LabChip EZ Reader mobility shift assay), inhibition of CDK2/Cyclin E1 activity. Format: biochemical. Conditions: 2.5 nM CDK2/Cyclin E1(14-475), 100 μM ATP, 30 min preincubation; read-out: Caliper Assay (CDK2/CCNE1): IC50. In short, it runs like this: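 Compounds were preincubated 30 min with CDK2/Cyclin E1(14-475), then run for 100 min with 2.5 nM enzyme, 100 μM ATP and 1.5 μM 5-FAM-QSPKKG peptide in HEPES pH 7.5 (final). Reactions were EDTA-stopped and substrate-to-product conversion read by mobility shift. IC50 came from a four-parameter fit.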

The structures appear in SMILES notation. Bounds are passed on as bounds.

Consider `O=C(c1cnn(Cc2cccc3c2CCNC3)c1)N1CC(c2nnc(C(F)(F)c3ccc(Cl)c(Cl)c3)o2)C2(C1)CN(C(=O)C1(C(F)(F)F)CC1)C2` (stereo not shown) [I-106], for which the results for the IC50 in the assay on Kuramochi cells and against CDK2/Cyclin E1 [1] were 5 to 10 µM and over 10 µM, respectively.
The matching figures for `O=C(c1cnc(O)cn1)N1CC(c2nnc(C(COCc3ccccc3)c3cccc(C4CCCCC4)c3)o2)C2(C1)CN(C(=O)C1(C(F)(F)F)CC1)C2` (stereo not shown) [I-107, (8-(5-(2-(benzyloxy)-1-(3-cyclohexylphenyl)ethyl)-1,3,4-oxadiazol-2-yl)-2-(1-(trifluoromethyl)cyclopropane-1-carbonyl)-2,6-diazaspiro[3.4]octan-6-yl)(5-hydroxypyrazin-2-yl)methanone]: 0.5 to 5 µM and at most 0.5 µM.
On the same counts, the results for `O=C(c1cnn(Cc2cccc3[nH]cnc23)c1)N1CC(c2nnc(C(F)(F)c3ccc(Cl)c(Cl)c3)o2)C2(C1)CN(C(=O)C1(C(F)(F)F)CC1)C2` (stereo not shown) [I-108, (1-((1H-benzo[d]imidazol-4-yl)methyl)-1H-pyrazol-4-yl)(8-(5-((3,4-dichlorophenyl)difluoromethyl)-1,3,4-oxadiazol-2-yl)-2-(1-(trifluoromethyl)cyclopropane-1-carbonyl)-2,6-diazaspiro[3.4]octan-6-yl)methanone] are 5 to 10 µM and 0.5 to 5 µM.
The matching figures for `CC(c1nc(C2CN(C(=O)c3cnn(CC(=O)O)c3)CC23CN(C(=O)[C@H]2CC2(C)C)C3)no1)n1ccc(C2CCCC2)n1` (stereo partly drawn) [I-110, 2-(4-(8-(5-(1-(3-cyclopentyl-1H-pyrazol-1-yl)ethyl)-1,2,4-oxadiazol-3-yl)-2-((S)-2,2-dimethylcyclopropane-1-carbonyl)-2,6-diazaspiro[3.4]octane-6-carbonyl)-1H-pyrazol-1-yl)acetic acid]: over 10 µM and 5 to 10 µM.
For `FC(F)(c1ccc(Cl)c(Cl)c1)c1nnc(C2CN(c3ncnc4ncsc34)CC23CN(c2ncccn2)C3)o1` (stereo not shown) [I-183, 2-((3,4-dichlorophenyl)difluoromethyl)-5-(2-(pyrimidin-2-yl)-6-(thiazolo[4,5-d]pyrimidin-7-yl)-2,6-diazaspiro[3.4]octan-8-yl)-1,3,4-oxadiazole], the IC50 at CDK2/Cyclin E1 [2] and in the assay on Kuramochi cells was over 10 µM in each case.
`O=C(c1cncs1)N1CC(c2nnc(C(F)(F)c3ccc(Cl)c(Cl)c3)o2)C2(C1)CN(c1ccccn1)C2` (stereo not shown) [I-184]: the IC50 on CDK2/Cyclin E1 [2] and with Kuramochi cells was over 10 µM in each case.
For `CC1(C)C[C@@H]1C(=O)N1CC2(CN(C(=O)c3cnc(C#N)s3)CC2c2nnc(C(F)(F)c3ccc(Cl)c(Cl)c3)o2)C1` (stereo partly shown) [I-185], the IC50 at CDK2/Cyclin E1 [2] is over 10 µM; in the assay with Kuramochi cells, 5 to 10 µM.
On the same counts, the results for `O=C(c1cncs1)N1CC(c2nnc(C(F)(F)c3ccc(Cl)c(Cl)c3)o2)C2(C1)CN(C(=O)N1CCC1)C2` (stereo not shown) [I-186, Azetidin-1-yl(8-(5-((3,4-dichlorophenyl)difluoromethyl)-1,3,4-oxadiazol-2-yl)-6-(thiazole-5-carbonyl)-2,6-diazaspiro[3.4]octan-2-yl)methanone] are over 10 µM and over 10 µM.
On the same counts, the results for `O=C(c1cncs1)N1CC(c2nnc(C(F)(F)c3ccc(Cl)c(Cl)c3)o2)C2(C1)CN(c1cccnn1)C2` (stereo not shown) [I-187, (8-(5-((3,4-dichlorophenyl)difluoromethyl)-1,3,4-oxadiazol-2-yl)-2-(pyridazin-3-yl)-2,6-diazaspiro[3.4]octan-6-yl)(thiazol-5-yl)methanone] are over 10 µM and over 10 µM.
The matching figures for `CC(C)(CO)C(=O)N1CC2(CN(C(=O)c3cncs3)CC2c2nnc(C(F)(F)c3ccc(Cl)c(Cl)c3)o2)C1` (stereo not shown) [I-189]: 1 to 10 µM and over 10 µM.
On to `CC(C)=CC(=O)N1CC2(C1)CN(C(=O)c1cncs1)CC2c1nnc(C(F)(F)c2ccc(Cl)c(Cl)c2)o1` (stereo not shown) [I-190], for which the IC50 at CDK2/Cyclin E1 [2] and in the assay with Kuramochi cells was over 10 µM each time.
Turning to `O=C(c1cn[nH]c1)N1CC(c2nnc(C(F)(F)c3ccc(Cl)c(Cl)c3)o2)C2(C1)CN(C(=O)[C@H]1CC1(F)F)C2` (stereo partly drawn) [I-191, (8-(5-((3,4-dichlorophenyl)difluoromethyl)-1,3,4-oxadiazol-2-yl)-2-((R)-2,2-difluorocyclopropane-1-carbonyl)-2,6-diazaspiro[3.4]octan-6-yl)(1H-pyrazol-4-yl)methanone], the IC50 at CDK2/Cyclin E1 [2] was 1 to 10 µM; in the assay on Kuramochi cells, over 10 µM.
`CC1(C)C[C@@H]1C(=O)N1CC2(C1)CN(c1ncnc3ncsc13)CC2c1nnc(C(F)(F)c2ccc(Cl)c(Cl)c2)o1` (stereo partly drawn) [I-192, (8-(5-((3,4-dichlorophenyl)difluoromethyl)-1,3,4-oxadiazol-2-yl)-6-(thiazolo[4,5-d]pyrimidin-7-yl)-2,6-diazaspiro[3.4]octan-2-yl)((S)-2,2-dimethylcyclopropyl)methanone]: the values for the IC50 on CDK2/Cyclin E1 [2] and with Kuramochi cells were 1 to 10 µM and 5 to 10 µM, respectively.
On the same counts, the results for `CC1(C)C[C@@H]1C(=O)N1CC2(CN(C(=O)c3cncs3)CC2c2cn(Cc3ccc(C4CC4)cc3)nn2)C1` (stereo partly shown) [I-193] are 1 to 10 µM and over 10 µM.
The matching figures for `CC1(C)C[C@@H]1C(=O)N1CC2(CN(C(=O)c3cncs3)CC2c2cn(Cc3ccc(C4(C(F)(F)F)CC4)cc3)nn2)C1` (stereo partly shown) [I-194]: 0.1 to 1 µM and over 10 µM.
On the same counts, the results for `CC1(C)C[C@@H]1C(=O)N1CC2(CN(C(=O)c3cncs3)CC2c2cn(Cc3cccc(C(F)(F)F)c3)nn2)C1` (stereo partly shown) [I-195] are 1 to 10 µM and over 10 µM.
In the case of `CC(=O)N1CC2(C1)CN(C(=O)c1cncs1)CC2c1nnc(C(F)(F)c2ccc(Cl)c(Cl)c2)o1` (stereo not shown) [I-196], the IC50 on CDK2/Cyclin E1 [2] and in the assay with Kuramochi cells was over 10 µM each time.
Consider `O=C(c1cncs1)N1CC(c2nnc(Cc3ccc(Cl)c(Cl)c3)o2)C2(C1)CN(c1ccccn1)C2` (stereo not shown) [I-197, (8-(5-(3,4-dichlorobenzyl)-1,3,4-oxadiazol-2-yl)-2-(pyridin-2-yl)-2,6-diazaspiro[3.4]octan-6-yl)(thiazol-5-yl)methanone], for which the IC50 at CDK2/Cyclin E1 [2] and in the assay with Kuramochi cells was over 10 µM each time.
Consider `C=C(c1ccc(C(F)(F)c2nnc(C3CN(C(=O)c4cncs4)CC34CN(C(=O)[C@H]3CC3(C)C)C4)o2)cc1)C(F)(F)F` (stereo partly drawn) [I-198, (8-(5-(difluoro(4-(3,3,3-trifluoroprop-1-en-2-yl)phenyl)methyl)-1,3,4-oxadiazol-2-yl)-2-((S)-2,2-dimethylcyclopropane-1-carbonyl)-2,6-diazaspiro[3.4]octan-6-yl)(thiazol-5-yl)methanone], for which the IC50 was 0.01 to 0.1 µM at CDK2/Cyclin E1 [2] and 0.5 to 5 µM in the assay with Kuramochi cells.
For `CC1(C)C[C@@H]1C(=O)N1CC2(CN(C(=O)c3cnc(Br)s3)CC2c2nnc(C(F)(F)c3ccc(Cl)c(Cl)c3)o2)C1` (stereo partly shown) [I-199], the IC50 is over 10 µM on CDK2/Cyclin E1 [2] and 5 to 10 µM with Kuramochi cells.
Turning to `CC(=O)N1CC(c2nnc(C(F)(F)c3ccc(Cl)c(Cl)c3)o2)C2(C1)CN(C(=O)[C@H]1CC1(C)C)C2` (stereo partly shown) [I-200], the IC50 at CDK2/Cyclin E1 [2] and in the assay on Kuramochi cells was over 10 µM in each case.
Regarding `CC1(C)C[C@@H]1C(=O)N1CC2(CN(C(=O)c3cncs3)CC2c2ncc(Cc3ccc(C(F)(F)F)c(Cl)c3)o2)C1` (stereo partly drawn) [I-201, (8-(5-(3-chloro-4-(trifluoromethyl)benzyl)oxazol-2-yl)-2-((S)-2,2-dimethylcyclopropane-1-carbonyl)-2,6-diazaspiro[3.4]octan-6-yl)(thiazol-5-yl)methanone], the IC50 lay in the range of 0.1 to 1 µM at CDK2/Cyclin E1 [2] and 5 to 10 µM in the assay with Kuramochi cells.
On the same counts, the results for `CC1(C)C[C@@H]1C(=O)N1CC2(CN(C(=O)c3cncs3)CC2c2cn(Cc3ccc(C(F)(F)F)cc3)nn2)C1` (stereo partly shown) [I-202] are over 10 µM and over 10 µM.
The matching figures for `O=C(CC(F)(F)F)N1CC(c2nnc(C(F)(F)c3ccc(Cl)c(Cl)c3)o2)C2(C1)CN(C(=O)CC(F)(F)F)C2` (stereo not shown) [I-203]: over 10 µM and over 10 µM.
On the same counts, the results for `CC(=O)N1CC(c2nnc(C(F)(F)c3ccc(Cl)c(Cl)c3)o2)C2(C1)CN(C(C)=O)C2` (stereo not shown) [I-204] are over 10 µM and over 10 µM.
For the compound `O=C(N1CC(c2nnc(C(F)(F)c3ccc(Cl)c(Cl)c3)o2)C2(C1)CN(C(=O)C(F)(F)F)C2)C(F)(F)F` (stereo not shown) [I-205, 1,1′-(8-(5-((3,4-dichlorophenyl)difluoromethyl)-1,3,4-oxadiazol-2-yl)-2,6-diazaspiro[3.4]octane-2,6-diyl)bis(2,2,2-trifluoroethan-1-one)], the figures for the IC50 on CDK2/Cyclin E1 [2] and with Kuramochi cells were over 10 µM and 5 to 10 µM, respectively.
